Test results as given in US10160755B2 (Plexxikon Inc., priority 2015, dated 2018).

Legend:
FLT3-D835Y = biological target: T1, FLT3-D835Y (Homo sapiens, UniProt P36888, D835Y); assay: FLT3-D835Y biochemical kinase assay (AlphaScreen)
T1 construct: purchased Invitrogen PV3967
T1 sequence (P36888 27-993 D835Y): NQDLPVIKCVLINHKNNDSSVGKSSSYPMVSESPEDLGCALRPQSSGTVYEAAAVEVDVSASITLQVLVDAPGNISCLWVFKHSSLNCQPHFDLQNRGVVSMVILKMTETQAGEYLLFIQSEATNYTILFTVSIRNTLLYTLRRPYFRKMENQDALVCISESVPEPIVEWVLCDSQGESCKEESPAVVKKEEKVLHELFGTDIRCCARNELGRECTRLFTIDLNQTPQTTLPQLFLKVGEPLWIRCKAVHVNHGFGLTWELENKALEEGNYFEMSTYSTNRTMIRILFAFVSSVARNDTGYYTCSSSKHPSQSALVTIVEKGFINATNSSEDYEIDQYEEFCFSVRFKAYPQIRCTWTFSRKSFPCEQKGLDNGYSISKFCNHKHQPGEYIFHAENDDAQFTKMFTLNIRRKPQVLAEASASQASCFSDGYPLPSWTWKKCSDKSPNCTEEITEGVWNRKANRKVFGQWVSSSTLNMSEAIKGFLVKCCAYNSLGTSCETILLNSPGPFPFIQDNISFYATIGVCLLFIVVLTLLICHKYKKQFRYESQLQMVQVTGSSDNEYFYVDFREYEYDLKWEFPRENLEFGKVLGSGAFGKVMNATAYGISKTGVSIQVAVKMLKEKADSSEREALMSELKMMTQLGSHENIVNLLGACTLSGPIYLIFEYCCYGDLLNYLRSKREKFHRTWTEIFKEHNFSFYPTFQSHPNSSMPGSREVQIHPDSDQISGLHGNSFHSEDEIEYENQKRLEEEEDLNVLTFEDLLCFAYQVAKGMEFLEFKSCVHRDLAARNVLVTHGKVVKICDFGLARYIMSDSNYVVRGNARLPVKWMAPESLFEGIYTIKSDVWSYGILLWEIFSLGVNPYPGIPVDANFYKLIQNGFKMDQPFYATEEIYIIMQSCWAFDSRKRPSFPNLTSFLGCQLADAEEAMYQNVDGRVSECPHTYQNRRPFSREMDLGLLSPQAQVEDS
In short: (§1)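 IC50 values reflect loss of AlphaScreen proximity signal (excitation 680 nm, emission 580 nm) from tyrosine phosphorylation of a biotinylated poly(Glu4-Tyr) substrate at 30 nM. ATP was 10 μM for the D835Y mutant and 100 μM for ITD. Detection used PY20 acceptor beads.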

FLT3-ITD = biological target: T2, FLT3-ITD (Homo sapiens, UniProt P36888); assay: FLT3-ITD biochemical kinase assay (AlphaScreen)
T2 construct: FLT3-ITD; Invitrogen #PV6190
T2 sequence (P36888 1-993): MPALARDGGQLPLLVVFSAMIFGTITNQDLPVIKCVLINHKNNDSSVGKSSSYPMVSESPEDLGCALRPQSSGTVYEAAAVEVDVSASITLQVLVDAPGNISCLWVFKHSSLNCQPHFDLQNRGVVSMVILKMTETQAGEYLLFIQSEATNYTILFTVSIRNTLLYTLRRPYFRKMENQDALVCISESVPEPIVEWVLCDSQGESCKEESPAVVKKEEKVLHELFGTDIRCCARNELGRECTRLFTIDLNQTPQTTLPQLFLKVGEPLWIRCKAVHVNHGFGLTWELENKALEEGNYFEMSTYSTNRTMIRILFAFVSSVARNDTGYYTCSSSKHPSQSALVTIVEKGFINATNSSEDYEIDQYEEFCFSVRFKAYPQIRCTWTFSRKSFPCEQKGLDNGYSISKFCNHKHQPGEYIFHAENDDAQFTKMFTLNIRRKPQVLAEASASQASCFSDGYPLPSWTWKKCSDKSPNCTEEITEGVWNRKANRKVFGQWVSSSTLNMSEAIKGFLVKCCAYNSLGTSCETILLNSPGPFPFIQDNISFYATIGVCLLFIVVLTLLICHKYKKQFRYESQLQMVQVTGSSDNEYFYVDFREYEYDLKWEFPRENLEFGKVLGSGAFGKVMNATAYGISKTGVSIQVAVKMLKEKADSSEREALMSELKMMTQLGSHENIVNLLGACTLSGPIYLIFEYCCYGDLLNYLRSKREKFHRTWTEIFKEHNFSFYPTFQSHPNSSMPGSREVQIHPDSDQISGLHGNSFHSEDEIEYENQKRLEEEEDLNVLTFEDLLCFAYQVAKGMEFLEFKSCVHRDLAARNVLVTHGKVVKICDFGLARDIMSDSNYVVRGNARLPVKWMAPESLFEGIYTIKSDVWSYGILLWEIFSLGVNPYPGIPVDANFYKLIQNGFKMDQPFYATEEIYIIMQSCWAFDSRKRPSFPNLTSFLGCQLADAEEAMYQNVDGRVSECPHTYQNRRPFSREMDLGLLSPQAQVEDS
In short: as §1

SMILES | IC50 (FLT3-D835Y) | IC50 (FLT3-ITD)
COc1cc(-c2cnc3[nH]cc(-c4ccc5ncn(C(C)(C)C)c5c4)c3c2)ccn1 [P-106, 1-tert-butyl-6-[5-(2-methoxy-4-pyridyl)-1H-pyrrolo[2,3-b]pyridin-3-yl]benzimidazole] | 0.0001 to 1 µM | 0.0001 to 1 µM
COc1cnc2[nH]cc(-c3cnc4ncn(Cc5cc(C)on5)c4c3)c2c1 [P-144, 3-[[6-(5-methoxy-1H-pyrrolo[2,3-b]pyridin-3-yl)imidazo[4,5-b]pyridin-1-yl]methyl]-5-methyl-isoxazole] | 0.0001 to 1 µM | 0.0001 to 1 µM
CC(C)n1cnc2ccc(-c3c[nH]c4ncc(-c5cnn(CC(F)(F)F)c5)cc34)cc21 [P-268, 1-isopropyl-6-[5-[1-(2,2,2-trifluoroethyl)pyrazol-4-yl]-1H-pyrrolo[2,3-b]pyridin-3-yl]benzimidazole] | 0.0001 to 1 µM | 0.0001 to 1 µM
COc1cnc2[nH]cc(-c3ccc4ncn(-c5ccc(F)cc5)c4c3)c2c1 [P-103, 1-(4-fluorophenyl)-6-(5-methoxy-1H-pyrrolo[2,3-b]pyridin-3-yl)benzimidazole] | 0.0001 to 1 µM | 0.0001 to 1 µM
CN(c1cccc(-c2cnc3[nH]cc(-c4ccc5ncn(C)c5c4)c3n2)c1)S(C)(=O)=O [P-150, N-methyl-N-[3-[7-(3-methylbenzimidazol-5-yl)-5H-pyrrolo[2,3-b]pyrazin-2-yl]phenyl]methanesulfonamide] | 0.0001 to 1 µM | 0.0001 to 1 µM
FC(F)(F)Cn1cc(-c2cnc3[nH]cc(-c4ccc5ncn(C6CCCNC6)c5c4)c3n2)cn1 (stereo not shown) [P-258, 7-[3-(3-piperidyl)benzimidazol-5-yl]-2-[1-(2,2,2-trifluoroethyl)pyrazol-4-yl]-5H-pyrrolo[2,3-b]pyrazine] | 0.0001 to 1 µM | 0.0001 to 1 µM
CC(C)(C)n1cnc2ccc(-c3c[nH]c4ncc(-c5cccc(N6CCCCS6(=O)=O)c5)cc34)cc21 [P-221, 2-[3-[3-(3-tert-butylbenzimidazol-5-yl)-1H-pyrrolo[2,3-b]pyridin-5-yl]phenyl]thiazinane 1,1-dioxide] | 0.0001 to 1 µM | 0.0001 to 1 µM
N#Cc1cc(-c2cnc3[nH]cc(-c4ccc5ncn(C6CCCNC6)c5c4)c3c2)ccc1F (stereo not shown) [P-208, 2-fluoro-5-[3-[3-(3-piperidyl)benzimidazol-5-yl]-1H-pyrrolo[2,3-b]pyridin-5-yl]benzonitrile] | 0.0001 to 1 µM | 0.0001 to 1 µM
FC(F)(F)Oc1cccc(C#Cc2cnc3[nH]cc(-c4ccc5ncn(C6CCCNC6)c5c4)c3n2)c1 (stereo not shown) [P-246, 7-[3-(3-piperidyl)benzimidazol-5-yl]-2-[2-[3-(trifluoromethoxy)phenyl]ethynyl]-5H-pyrrolo[2,3-b]pyrazine] | 0.0001 to 1 µM | 0.0001 to 1 µM
CC(C)(C)n1cnc2ccc(-c3c[nH]c4ncc(-c5cnn(C(F)F)c5)nc34)cc21 [P-255, 7-(3-tert-butylbenzimidazol-5-yl)-2-[1-(difluoromethyl)pyrazol-4-yl]-5H-pyrrolo[2,3-b]pyrazine] | 0.0001 to 1 µM | 0.0001 to 1 µM
O=C(Nc1cccc(F)c1)c1cnc2[nH]cc(-c3ccc4ncn(C5CCCNC5)c4c3)c2c1 (stereo not shown) [P-178, N-(3-fluorophenyl)-3-[3-(3-piperidyl)benzimidazol-5-yl]-1H-pyrrolo[2,3-b]pyridine-5-carboxamide] | 0.0001 to 1 µM | 0.0001 to 1 µM
CC(C)(C)n1cnc2ccc(-c3c[nH]c4ncc(-c5cccc(S(=O)(=O)N6CCCC6)c5)cc34)cc21 [P-220, 1-tert-butyl-6-[5-(3-pyrrolidin-1-ylsulfonylphenyl)-1H-pyrrolo[2,3-b]pyridin-3-yl]benzimidazole] | 0.0001 to 1 µM | 0.0001 to 1 µM
C#Cc1cnc2[nH]cc(-c3ccc4ncn(C(C)(C)C)c4c3)c2n1 [P-259, 7-(3-tert-butylbenzimidazol-5-yl)-2-ethynyl-5H-pyrrolo[2,3-b]pyrazine] | 0.0001 to 1 µM | 0.0001 to 1 µM
COc1cc(C(=O)Nc2cnc3[nH]cc(-c4ccc5ncn(C6CCCNC6)c5c4)c3c2)ccn1 (stereo not shown) [P-247, 2-methoxy-N-[3-[3-(3-piperidyl)benzimidazol-5-yl]-1H-pyrrolo[2,3-b]pyridin-5-yl]pyridine-4-carboxamide] | 0.0001 to 1 µM | 0.0001 to 1 µM
